{"source": "patent US20060252823A1", "about": "“Isocoumarin-based inhibitors of urokinase-type plasminogen activator” (priority 2005, published 2006)", "key": {"Human urokinase": {"target": "T1, Human urokinase (Homo sapiens, UniProt P00749)", "T1 construct": "purchased Sigma/Aldrich", "assay": "Kinetics of human urokinase inhibition with Spectrozyme UK substrate", "type": "biochemical", "conditions": "for binding to uPA compared to unsubstituted counterparts: qualitative comparison of dissociation constants (Table 1); for fold improvement of Ki over 4d: compared to unsubstituted compound 4d; for Ki: human uPA, 0.1M Tris pH 8.8, 25° C., initial rate data", "protocol": "Human urokinase (Sigma/Aldrich, St. Louis, Mo.) and Spectrozyme UK (American Diagnostica, Stamford, Conn.) were used for the kinetic studies. Enzyme activity was routinely measured in 1 ml volumes of 0.1M Tris, pH 8.8, Spectrozyme UK (10 μM to 150 μM) and 0.64 μg (3,770 units/mg protein) human urokinase. Reactions were monitored at 405 nm, 25° C., with a Perkin/Elmer Lambda S2 UV/vis spectrophotometer. Michaelis constants and Ki values were determined from initial rate data, measured at 8 to 10 substrate concentrations, by non-linear regression analysis with SigmaPlot's Enzyme Kinetics Module™ (Chicago, Ill., USA)."}}, "note": "Counter-ions that a name gives are not always drawn."}
{"smiles": "O=c1oc(OCCBr)c(Cl)c2ccc([N+](=O)[O-])cc12", "note": "[Compound 4a, 3-(2-Bromoethoxy)-4-chloro-7-nitroisocoumarin]", "values": [{"measurement": "melting point", "result": "126 to 128", "unit": "°C"}, {"measurement": "binding to uPA compared to unsubstituted counterparts", "setting": "Human urokinase", "result": "improved binding"}]}
{"smiles": "O=c1oc(OCCCBr)c(Cl)c2ccc([N+](=O)[O-])cc12", "note": "[Compound 4b, 3-(3-Bromopropoxy)-4-chloro-7-nitroisocoumarin]", "values": [{"measurement": "melting point", "result": "131 to 134", "unit": "°C"}, {"measurement": "fold improvement of Ki over 4d", "setting": "Human urokinase", "result": 8, "unit": "fold"}, {"measurement": "Ki", "setting": "Human urokinase", "result": 1200, "unit": "nM"}, {"measurement": "binding to uPA compared to unsubstituted counterparts", "setting": "Human urokinase", "result": "improved binding"}]}
{"smiles": "O=c1oc(OCCBr)c(Cl)c2ccccc12", "note": "[Compound 4c, 3-(2-Bromoethoxy)-4-chloroisocoumarin]", "values": [{"measurement": "melting point", "result": "81 to 82", "unit": "°C"}]}
{"smiles": "O=c1oc(OCCCBr)c(Cl)c2ccccc12", "note": "[Compound 4d, 3-(3-Bromopropoxy)-4-chloroisocoumarin]", "values": [{"measurement": "melting point", "result": "95 to 97", "unit": "°C"}, {"measurement": "type of inhibition of uPA", "setting": "Human urokinase", "result": "simple competitive inhibition with no evidence of rapid inactivation"}, {"measurement": "Ki", "setting": "Human urokinase", "result": 9000, "unit": "nM"}]}
{"smiles": "O=c1oc(OCCCCBr)c(Cl)c2ccccc12", "note": "[Compound 4e, 3-(4-Bromobutoxy)4-chloroisocoumarin]", "values": [{"measurement": "melting point", "result": "75 to 77", "unit": "°C"}]}
{"smiles": "Br.N=C(S)NCCOc1oc(=O)c2ccccc2c1Cl", "note": "[Compound 5c, 4-Chloro-3-(2-isothioureidoethoxy)isocoumarin hydrobromide]", "values": [{"measurement": "melting point", "result": "168 to 170", "unit": "°C"}]}
{"smiles": "N=C(N)SCCOc1oc(=O)c2ccccc2c1Cl", "note": "[Compound 5c, 4-Chloro-3-(2-isothioureidoethoxy)isocoumarin hydrobromide]", "values": [{"measurement": "Ki", "setting": "Human urokinase", "result": 27, "unit": "nM"}]}
{"smiles": "Br.NC(S)=NCCCOc1oc(=O)c2ccccc2c1Cl", "note": "[Compound 5d, 4-Chloro-3-(3-isothioureidopropoxy)isocoumarin hydrobromide]", "values": [{"measurement": "melting point", "result": "159 to 163", "unit": "°C"}]}
{"smiles": "Br.N=C(S)NCCCCOc1oc(=O)c2ccccc2c1Cl", "note": "[Compound 5e, 4-Chloro-3-(4-isothioureidobutoxy)isocoumarin hydrobromide]", "values": [{"measurement": "melting point", "result": "159 to 161", "unit": "°C"}]}
{"smiles": "Nc1ccc2c(Cl)c(OCCBr)oc(=O)c2c1", "note": "[Compound 6a, 7-Amino-3-(2-bromoethoxy)4-chloroisocoumarin]", "values": [{"measurement": "melting point", "result": "134 to 136", "unit": "°C"}]}
{"smiles": "Nc1ccc2c(Cl)c(OCCCBr)oc(=O)c2c1", "note": "[Compound 6b, 7-Amino-3-(3-bromopropoxy)-4-chloroisocoumarin]", "values": [{"measurement": "melting point", "result": "106 to 107", "unit": "°C"}]}
{"smiles": "Br.NC(S)=NCCCOc1cc2ccc(N)cc2c(=O)o1", "note": "[Compound 7b, 7-Amino-3-(3-isothioureidopropoxy)isocoumarin hydrobromide]", "values": [{"measurement": "melting point", "result": 173, "unit": "°C"}]}
{"smiles": "O=C(Nc1ccc2c(Cl)c(OCCBr)oc(=O)c2c1)c1ccccc1", "note": "[Compound 8a, 7-Benzamido-3-(2-bromoethoxy)-4-chloroisocoumarin]", "values": [{"measurement": "melting point", "result": "214 to 216", "unit": "°C"}, {"measurement": "binding to uPA compared to unsubstituted counterparts", "setting": "Human urokinase", "result": "markedly improved binding"}]}
{"smiles": "O=C(Nc1ccc2c(Cl)c(OCCCBr)oc(=O)c2c1)c1ccccc1", "note": "[Compound 8b, 7-Benzamido-3-(3-bromopropoxy)-4-chloroisocoumarin]", "values": [{"measurement": "melting point", "result": "193 to 194", "unit": "°C"}, {"measurement": "fold improvement of Ki over 4d", "setting": "Human urokinase", "result": 300, "unit": "fold"}, {"measurement": "Ki", "setting": "Human urokinase", "result": 34, "unit": "nM"}, {"measurement": "dissociation constant", "setting": "Human urokinase; in words", "result": "low nanomolar range"}, {"measurement": "binding to uPA compared to unsubstituted counterparts", "setting": "Human urokinase", "result": "markedly improved binding"}]}
{"smiles": "Br.N=C(S)NCCOc1oc(=O)c2cc(NC(=O)c3ccccc3)ccc2c1Cl", "note": "[Compound 9a, 7-Benzamido-4-chloro-3-(2-isothioureidoethoxy)isocoumarin hydrobromide]", "values": [{"measurement": "melting point", "result": "173 to 175", "unit": "°C"}]}
{"smiles": "Br.NC(S)=NCCCOc1oc(=O)c2cc(NC(=O)c3ccccc3)ccc2c1Cl", "note": "[Compound 9b, 7-Benzamido-4-chloro-3-(3-isothioureidopropoxy)isocoumarin hydrobromide]", "values": [{"measurement": "melting point", "result": "203 to 204", "unit": "°C"}, {"measurement": "binding to uPA compared to unsubstituted counterparts", "setting": "Human urokinase", "result": "did not exhibit any significant improvement in binding"}]}
{"smiles": "O=c1oc(OCCBr)cc2ccc([N+](=O)[O-])cc12", "note": "[Compound 10a, 3-(2-Bromoethoxy)-7-nitroisocoumarin]", "values": [{"measurement": "melting point", "result": "95 to 97", "unit": "°C"}]}
{"smiles": "O=c1oc(OCCCBr)cc2ccc([N+](=O)[O-])cc12", "note": "[Compound 10b, 3-(3-Bromopropoxy)-7-nitroisocoumarin]", "values": [{"measurement": "melting point", "result": "112 to 113", "unit": "°C"}]}
{"smiles": "O=C(c1c(OCCCBr)oc(=O)c2ccccc12)C(F)(F)F", "note": "[Compound 10c, 3-(3-Bromopropoxy)-4-trifluoroacetylisocoumarin]", "values": [{"measurement": "binding to uPA compared to unsubstituted counterparts", "setting": "Human urokinase", "result": "did not show improved binding"}]}
{"smiles": "Nc1ccc2cc(OCCBr)oc(=O)c2c1", "note": "[Compound 11, 7-Amino-3-(2-bromoethoxy)isocoumarin]", "values": [{"measurement": "melting point", "result": "> 280", "unit": "°C"}]}
